These results are taken from US4221737A, “1-(Alkynyl)amino-1-(mercaptoalkyl)amino ethylenes” (Bristol-Myers Company, priority 1979, dated 1980).

The subject of data set [1] is gastric acid output. As to the kind of experiment: Gastric antisecretory activity in the two hour pylorus ligated (Shay) rat. The format is in vivo, rat (male Long Evans). From the text: The pyloric ligation procedure in the rat was designed by Shay et al., Gastroenterology, 5, 53 (1945) for the study of perforating gastric ulcers; however, as the method became known, it was also employed as a means of studying rat gastric secretion, Shay et al., Gastroenterology, 26, 906 (1954), Brodie, D. A., Am. J. Dig. Dis., 11, 231 (1966). A modification of this procedure is presently used to evaluate compounds for gastric antisecretory activity.
Male Long Evans rats, 280-300 gm., are used. The animals are placed in individual cages and fasted for 24 hours with free access to water. Under ether anesthesia, the stomach is reached through a midline incision, and a cotton-thread ligature is placed around the pylorus. […] All compounds are solubilized with one equivalent of HCl and brought to the proper volume with water. The animals are returned to their cages from which the water bottles have been removed and two hours later are sacrificed with ether. The stomach is removed and the two hour gastric collection is drained into a graduated test tube for volume determination. Titratable acidity is measured by titrating a one ml. sample to pH 7.0 with 0.02 N NaOH, using an Autoburet and an electrometric pH meter (Radiometer). […] The percent inhibition of acid output is calculated as follows [formula]

Data set [2] deals with histamine-induced gastric acid output. As to the kind of experiment: Gastric antisecretory activity in the gastric fistula dog (histamine-induced gastric acid output). The format is in vivo, dog (beagle). The settings on record: for Percent Inhibition Acid Output: 1.5 μMole/kg iv (BL-5949: one dog at this dose). On the procedure: Thomas type [Thomas, J. E., Proc. Soc. exp. Biol. Med., 46, 260 (1941)] stainless steel cannulae are inserted into the stomachs of beagle dogs (10-12 kg.) just orad to the pyloric gland area near the greater curvature to provide a chronic gastric fistula. Animals are allowed to recover for at least two months before any testing is done. Dogs are fasted overnight (~18 hours) with water ad lib prior to each experiment. The dogs are placed in a sling and an eight inch inside needle catheter (C. R. Baird, Inc.) with a two inch 17 gauge needle is inserted into a leg vein for purposes of drug administration. Gastric secretions are collected every 15 minutes by gravity drainage from the opened cannula. […] A modification of the procedure described by Grossman and Konturek, Gastroenterology, 66, 517 (1974) was followed. […] Each 15 minute sample of gastric juice is measured to the nearest 0.5 ml. and titratable acidity against 0.02 N NaOH (endpoint pH 7.0) is measured with an Autoburet and pH meter (radiometer).The percent inhibition of acid output is calculated as described in the pylorus ligated rat procedure.

For data set [3], the target named is T1, histamine H2-receptors (Cavia porcellus, UniProt P47747).
T1 construct: The spontaneously beating right atrium was dissected free from other tissues; from tissue; host or cells: isolated right atrium of male Hartley guinea pigs
As to the kind of experiment: Histamine H2-receptor antagonism, isolated guinea pig right atria. The settings on record: for Histamine ED50 after test compound / Concentration-Response Curve Displacement Factor: test compound 3 × 10^-5 M; for Histamine ED50 after test compound: 30 minute incubation, 95% limits: cimetidine 3.9-5.9 (N=8), Compound XII 3.10-5.98 (N=2), BL-5949 12.50-15.90 (N=5); for Concentration-Response Curve Displacement Factor: displacement of histamine curve to the right. On the procedure:
Subsequent investigations by Hughes and Coret, Proc. Soc. […] Black et al., Agents and Actions, 3, 133 (1973) and Brimblecombe et al., Fed. […] The present comparative studies were carried out using a modification of the procedure reported by Reinhardt et al., Agents and Actions, 4, 217 (1974).
Male Hartley strain guinea pigs (350-450 gm.) were sacrificed by a blow on the head. The heart was excised and placed in a Petri dish of oxygenated (95% O2, 5% CO2) modified Krebs solution (g./liter: NaCl 6.6, KCl 0.35, MgSO4.7 H2 O 0.295, KH2 PO4 0.162, CaCl2 0.238, NaHCO3 2.1 and dextrose 2.09). The spontaneously beating right atrium was dissected free from other tissues and a silk thread (4-0) attached to each end. The atrium was suspended in a 20 ml. muscle chamber containing oxygenated modified Krebs solution maintained at 32° C. Atrial contractions were recorded isometrically by means of a Grass FT 0.03 force displacement transducer and recordings of contractile force and rate were made with a Beckman RP Dynograph.
A resting tension of 1 g. was applied to the atrium and it was allowed to equilibrate for 1 hour.
Concentration-response curve displacement factors were calculated as follows: [formula] […] [formula]

The test system of data set [4] is gastric secretion. The settings on record: animals and man; cited from earlier work.
For data set [5] the following is noted: cited from earlier work.
The target in data set [6] is T1, histamine H2-receptors. The settings on record: Black et al., Nature, 236, 385 (1972); cited from earlier work.
For data set [7] the following is noted: clinical; cited from earlier work.
For data set [8], the system named is peptic ulcer disease. The settings on record: Gray et al., Lancet, 1 (8001), 4 (1977); cited from earlier work.
Data set [9] deals with H2-receptor. The note with it: cited from earlier work.

T1 sequence (P47747 whole entry): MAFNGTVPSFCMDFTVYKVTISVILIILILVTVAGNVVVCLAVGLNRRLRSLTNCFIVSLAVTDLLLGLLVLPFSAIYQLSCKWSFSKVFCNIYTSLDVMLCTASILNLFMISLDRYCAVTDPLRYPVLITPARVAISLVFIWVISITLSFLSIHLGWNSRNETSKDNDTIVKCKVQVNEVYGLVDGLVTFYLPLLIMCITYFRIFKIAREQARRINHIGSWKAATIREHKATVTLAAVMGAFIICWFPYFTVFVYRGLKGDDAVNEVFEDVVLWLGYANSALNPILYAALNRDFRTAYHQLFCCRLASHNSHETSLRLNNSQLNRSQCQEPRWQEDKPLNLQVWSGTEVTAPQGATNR

For the molecule `C#CCNC(=C[N+](=O)[O-])NCCSCc1[nH]cnc1C` [BL-5949, 1-Nitro-2-(2-propynylamino)-2-{2-[(4-methyl-1H-imidazol-5-yl)methylthio]ethylamino}ethylene], the “Potency relative to Compound XII” value in [1] (ip, rat) was 3.7 times; in data set [2] (iv, dog) it was 3.8 times. In addition, the “Potency as inhibitor of gastric secretion (in words)” value in data set [1] (rats) and in data set [2] (dogs) was “more potent than either cimetidine or Compound XII” in each case. The “Percent Inhibition Acid Output” value in data set [2] is listed as 88%. The “Potency as histamine H2-receptor antagonist (in words)” value in data set [3] (isolated guinea pig atria) is listed as “more potent than either cimetidine or Compound XII”.
For the molecule `CNC(=S)NCCCCc1cnc[nH]1` [Burimamide], in [4], the “Inhibition of gastric secretion (in words)” value is “inhibits gastric secretion in animals and man”. Besides, in data set [5], the “Oral absorption / oral activity (in words)” value is “oral absorption is poor”. Further, the “Effect at histamine H2-receptors of guinea pig atria (in words)” value in data set [6] is “a competitive antagonist of these receptors”.
`CNC(=NC#N)NCCSCc1nc[nH]c1C` [Cimetidine]: the “Toxicity (agranulocytosis) (in words)” value in data set [7] is “without producing agranulocytosis”. Further, the “Percent Inhibition Acid Output” value in data set [2] is listed as 53%. Further, the “Effectiveness in peptic ulcer disease (in words)” value in data set [8] is listed as “an effective therapeutic agent in the treatment of peptic ulcer disease”. Besides, in data set [9], the “Potency as H2 antagonist (in words)” value was “as effective an H2 antagonist as metiamide”. Besides, in data set [3], the “Histamine ED50 after test compound” value was found to be 4.80 µg/mL and the “Concentration-Response Curve Displacement Factor” value came to 25.26.
Consider `CNC(=C[N+](=O)[O-])NCCSCc1nc[nH]c1C` [Compound XII], for which, in data set [3], the “Histamine ED50 after test compound” value is 4.30 µg/mL and the “Concentration-Response Curve Displacement Factor” value is on record as 17.92.
Turning to `CNC(=S)NCCSCc1nc[nH]c1C` [Metiamide], the “Toxicity (agranulocytosis) (in words)” value in data set [7] was “toxicity (agranulocytosis)”. In addition, the “Oral absorption / oral activity (in words)” value in data set [5] is recorded as “orally active in man”. For the same molecule, in [9], the “Potency as H2 antagonist (in words)” value is reported as “more potent than burimamide”.
